tested on: Lox-IMVI melanoma cell line; experiment: Lox-IMVI anti-proliferative assay (growth inhibition, Cell Titer-Glo); type: cell-based, human; conditions: Homo sapiens; IC50 activity level in the cell-based Lox-IMVI anti-proliferative assay; read-out: Activity
Procedure, shortened: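 Viability read by ATP luminescence (Cell Titer-Glo) at t0 and after 72 h at 37 °C, 5% CO2, with normalisation to DMSO-treated cells. Compound tested at 0.5 nM–10 μM in 3-fold, 10-point series (0.2% DMSO final) on Lox-IMVI in RPMI+10% FBS; IC50 by 4-parameter sigmoidal fit.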

Row | Compound | IC50 [µM]
1 | CC[C@H](C)Nc1ncc2nc(Nc3c(F)cc(Cl)cc3Cl)n([C@H]3CC[C@@H](C(N)=O)CC3)c2n1 [Example 339, (1R,4s)-4-(2-(sec-butylamino)-8-(2,4-dichloro-6-fluorophenylamino)-9H-purin-9-yl)cyclohexanecarboxamide] | 0.5 to 1
2 | NC(=O)[C@H]1CC[C@@H](n2c(Nc3c(Cl)cc(F)cc3Cl)nc3cnc(NC4COCC4O)nc32)CC1 (stereo partly drawn) [Example 183, (1s,4s)-4-(8-(2,6-dichloro-4-fluorophenylamino)-2-(4-hydroxytetrahydrofuran-3-ylamino)-9H-purin-9-yl)cyclohexanecarboxamide] | > 1
3 | NC(=O)[C@H]1CC[C@@H](n2c(Nc3c(Cl)cc(Cl)cc3Cl)nc3cnc(NC4COCC4O)nc32)CC1 (stereo partly drawn) [Example 181, (1s,4s)-4-(2-(4-hydroxytetrahydrofuran-3-ylamino)-8-(2,4,6-trichlorophenylamino)-9H-purin-9-yl)cyclohexanecarboxamide] | 0.5 to 1
4 | NC(=O)[C@H]1CC[C@@H](n2c(Nc3ccc(F)c(F)c3F)nc3cnc(N[C@@H]4CCC[C@H](O)C4)nc32)CC1 [Example 364, (1S,4s)-4-(2-((1R,3S)-3-hydroxycyclohexylamino)-8-(2,3,4-trifluorophenylamino)-9H-purin-9-yl)cyclohexanecarboxamide] | > 1
5 | NC(=O)[C@H]1CC[C@@H](n2c(Nc3c(F)cc(Cl)cc3F)nc3cnc(NC4CCS(=O)(=O)CC4)nc32)CC1 [Example 156, (1s,4s)-4-(8-((4-chloro-2,6-difluorophenyl)amino)-2-((1,1-dioxidotetrahydro-2H-thiopyran-4-yl)amino)-9H-purin-9-yl)cyclohexane-1-carboxamide] | > 1
6 | NC(=O)[C@H]1CC[C@@H](n2c(Nc3c(Cl)cc(Cl)cc3Cl)nc3cnc(N[C@H]4CCC[C@@H](O)C4)nc32)CC1 [Example 373, (1R,4s)-4-(2-((1S,3R)-3-hydroxycyclohexylamino)-8-(2,4,6-trichlorophenylamino)-9H-purin-9-yl)cyclohexanecarboxamide] | 0.5 to 1
7 | CC1(C)CC[C@@H](Nc2ncc3nc(Nc4c(F)cc(F)cc4F)n([C@H]4CC[C@@H](C(N)=O)CC4)c3n2)C[C@H]1O [Example 381, (1S,4s)-4-(2-((1R,3R)-3-hydroxy-4,4-dimethylcyclohexylamino)-8-(2,4,6-trifluorophenylamino)-9H-purin-9-yl)cyclohexanecarboxamide] | > 1
8 | NC(=O)[C@H]1CC[C@@H](n2c(Nc3c(F)cc(Cl)cc3Cl)nc3cnc(N[C@H]4CCCOC4)nc32)CC1 [Example 204, (1R,4s)-4-(8-(2,4-dichloro-6-fluorophenylamino)-2-((S)-tetrahydro-2H-pyran-3-ylamino)-9H-purin-9-yl)cyclohexanecarboxamide] | > 1
9 | Cc1c(Cl)ccc(Nc2nc3cnc(NC4CCOCC4)nc3n2[C@H]2CC[C@@H](C(N)=O)CC2)c1F [Example 102, (1s,4s)-4-(8-(4-chloro-2-fluoro-3-methylphenylamino)-2-(tetrahydro-2H-pyran-4-ylamino)-9H-purin-9-yl)cyclohexanecarboxamide] | > 1
10 | NC(=O)[C@H]1CC[C@@H](n2c(Nc3c(F)cc(F)cc3Cl)nc3cnc(N[C@@H]4CCC[C@H](O)C4)nc32)CC1 [Example 351, (1S,4s)-4-(8-(2-chloro-4,6-difluorophenylamino)-2-((1R,3S)-3-hydroxycyclohexylamino)-9H-purin-9-yl)cyclohexanecarboxamide] | > 1
11 | NC(=O)[C@H]1CC[C@@H](n2c(Nc3c(Cl)cc(Cl)cc3Cl)nc3cnc(N[C@@H]4CCC[C@H]4O)nc32)CC1 [Example 254, (1S,4s)-4-(2-((1R,2R)-2-hydroxycyclopentylamino)-8-(2,4,6-trichlorophenylamino)-9H-purin-9-yl)cyclohexanecarboxamide] | 0.5 to 1

same assay, conditions: Homo sapiens; Lox-IMVI anti-proliferative assay, IC50 activity level; read-out: Activity

Row | Compound | IC50 [µM]
12 | CC(C)(CO)CNc1ncc2nc(Nc3c(Cl)cc(C#N)cc3Cl)n([C@H]3CC[C@@H](C(N)=O)CC3)c2n1 [Example 482, (1s,4s)-4-(8-(2,6-dichloro-4-cyanophenylamino)-2-(3-hydroxy-2,2-dimethylpropylamino)-9H-purin-9-yl)cyclohexanecarboxamide] | > 1
13 | N#Cc1cc(Cl)c(Nc2nc3cnc(N[C@H](CO)C(F)(F)F)nc3n2[C@H]2CC[C@@H](C(N)=O)CC2)c(Cl)c1 [Example 472, (1S,4s)-4-(8-(2,6-dichloro-4-cyanophenylamino)-2-((R)-1,1,1-trifluoro-3-hydroxypropan-2-ylamino)-9H-purin-9-yl)cyclohexanecarboxamide] | > 1
14 | CC(C)Nc1ncc2nc(Nc3c(F)cc(C#N)cc3Cl)n([C@H]3CC[C@@H](C(N)=O)CC3)c2n1 [Example 430, (1s,4s)-4-(8-(2-chloro-4-cyano-6-fluorophenylamino)-2-(isopropylamino)-9H-purin-9-yl)cyclohexanecarboxamide] | 0.5 to 1
15 | C[C@@H](CO)Nc1ncc2nc(Nc3c(Cl)cc(Cl)cc3Cl)n([C@H]3CC[C@](C)(C(N)=O)CC3)c2n1 [Example 481, (1S,4r)-4-(2-((S)-1-hydroxypropan-2-ylamino)-8-(2,4,6-trichlorophenylamino)-9H-purin-9-yl)-1-methylcyclohexanecarboxamide] | > 1

same assay, conditions: Homo sapiens; Lox-IMVI melanoma cell line, anti-proliferative assay; read-out: Activity (IC50 activity level)

Row | Compound | IC50 [µM]
16 | C[C@]1(C(N)=O)CC[C@@H](n2c(Nc3c(F)cc(C#N)cc3Cl)nc3cnc(N[C@@H]4CC[C@@H](O)C4)nc32)CC1 [Example 640, (1S,4s)-4-(8-(2-chloro-4-cyano-6-fluorophenylamino)-2-((1R,3R)-3-hydroxycyclopentylamino)-9H-purin-9-yl)-1-methylcyclohexanecarboxamide] | < 0.25
17 | NC(=O)[C@H]1CC[C@@H](n2c(Nc3c(Cl)cc(Cl)cc3Cl)nc3cnc(NC[C@@H]4CCCC[C@@H]4O)nc32)CC1 [Example 654, (1R,4s)-4-(2-(((1S,2S)-2-hydroxycyclohexyl)methylamino)-8-(2,4,6-trichlorophenylamino)-9H-purin-9-yl)cyclohexanecarboxamide] | > 1
18 | NC(=O)[C@H]1CC[C@@H](n2c(Nc3c(F)cc(F)cc3Cl)nc3cnc(N[C@@H]4CCCN(c5ccccc5)C4)nc32)CC1 [Example 742, (1S,4s)-4-(8-(2-chloro-4,6-difluorophenylamino)-2-((R)-1-phenylpiperidin-3-ylamino)-9H-purin-9-yl)cyclohexanecarboxamide] | > 1
19 | NC(=O)[C@H]1CC[C@@H](n2c(Nc3c(F)cc(F)cc3Cl)nc3cnc(N[C@H]4CCOC[C@H]4F)nc32)CC1 [Example 692, (1R,4s)-4-(8-(2-chloro-4,6-difluorophenylamino)-2-((3S,4S)-3-fluorotetrahydro-2H-pyran-4-ylamino)-9H-purin-9-yl)cyclohexanecarboxamide] | < 0.25
20 | NC(=O)[C@H]1CC[C@@H](n2c(Nc3c(F)cc(Cl)cc3F)nc3cnc(N[C@@H]4CCCN(C(=O)Nc5ccccc5)C4)nc32)CC1 [Example 782, (R)-3-(9-((1s,4S)-4-carbamoylcyclohexyl)-8-(4-chloro-2,6-difluorophenylamino)-9H-purin-2-ylamino)-N-phenylpiperidine-1-carboxamide] | > 1
21 | CS(=O)(=O)C1CC(Nc2ncc3nc(Nc4c(F)cc(Cl)cc4Cl)n([C@H]4CC[C@@H](C(N)=O)CC4)c3n2)C1 (stereo partly drawn) [Example 731, (1s,4s)-4-(8-(2,4-dichloro-6-fluorophenylamino)-2-(3-(methylsulfonyl)cyclobutylamino)-9H-purin-9-yl)cyclohexanecarboxamide] | > 1

Source: patent US11590139B2, “Substituted aminopurine compounds, compositions thereof, and methods of treatment therewith” (Signal Pharmaceuticals, LLC, priority 2014, dated 2023)
